Experimental data: patent US12415926B2, “Small tunable fluorophores for the detection and imaging of biomolecules” (The University Court of the University of Edinburgh, priority 2019, dated 2025)

Columns and labels:
[1] = Optical properties of SCOTfluors (absorbance, emission, extinction coefficient, quantum yield, solvatochromism); assay type: physicochemical
Procedure: All compounds were dissolved in different organic solvents, including toluene, chloroform, tetrahydrofuran, ethanol, DMSO and water (final concentrations: 10-50 μM). Fluorescence spectra were acquired on a spectrophotometer upon excitation at their maxima absorbance wavelengths.
The optical properties of SCOTfluor-80, 79, 78, 76 and 81 were compared with the properties of the original NBD.

[2] = tested on: Neutrophils; assay: Uptake of lactic acid analogue in live cells by flow cytometry (hypoxia/normoxia, lactate competition); assay type: cell-based, human
Procedure: (§1) B) Fluorescence emission of live cells after incubation with compound SCOTfluor-84 (100 μM) at different oxygen tensions (normoxia: blue; hypoxia: red) and in normoxic cells after competition with lactic acid (no lactate: red; 5 mM lactate: blue). Values as means and s.e.m as error bars. C) Time-lapse TIRF tracking of fluorescent particles in untreated (top) and DMOG-treated (10 μM, bottom) HeLa cells after incubation with compound SCOTfluor-84 (100 μM). Scale bars: 1 μm. D) Histograms of the diffusion coefficients of fluorescent particles in normoxic (blue) and hypoxic (red) cells. Dotted lines delineate fast and slow diffusion species. Mean diffusion coefficients (D) were determined after averaging the tracks of multiple particles for each condition (n=1,009 for untreated; n=2,906 for DMOG-treated).
Ex vivo experiments with fresh human peripheral blood from healthy donors were approved by the Accredited Medical Regional Ethics Committee (AMREC, reference number 15-HV-013). Peripheral blood polymorphonuclear cells from healthy volunteers were isolated as previously described. Briefly, citrated blood (3.8%) was centrifuged at room temperature at 350 g for 20 min, platelet-rich plasma was removed and separation from erythrocytes was achieved by Dextran sedimentation and fractionation of leukocytes using isotonic Percoll gradient. […] Flow cytometry data were analyzed using FlowJo software. […]

[3] = tested on: HeLa cells; assay: TIRF single-particle tracking of intracellular diffusion; assay type: cell-based, human; details: DMOG-treated (10 μM) vs untreated, 100 μM
Procedure: as §1
Imaging was performed using a home-built, bespoke single-molecule total internal reflection fluorescence (TIRF) microscope. […] Fluorescence collected by the same objective was separated from the returning TIR beam by a dichroic mirror DI02-R514 (Semrock) for 515 nm and was passed through appropriate filters [515 nm: BLP01-561R, FF01-607/36 (Semrock)]. Fluorescence was then passed through a 2.5× beam expander and recorded on an EMCCD camera (Delta Evolve 512, Photometrics) operating in frame transfer mode (EMGain=11.5 e^−/ADU and 250 ADU/photon). […]

[4] = tested on: HeLa cells; assay: Cytotoxicity assay in HeLa cells; details: 100 μM and 75 μM (1% DMSO), 4 h at 37° C.
Procedure: Cell viabilities were normalized to incubation in cell culture media under the same experimental conditions. A solution of 40% DMSO in cell culture media was used as a known cytotoxic positive control. Values represented as means±s.e.m. (n=3).

O=C(O)[C@H](O)CNc1ccc([N+](=O)[O-])c2n[se]nc12 [SCOTfluor-84, (R)-2-hydroxy-3-((7-nitrobenzo[c][1,2,5]selenadiazol-4-yl)amino)propanoic acid]
emission [1]: ~605 nm | uptake in hypoxic vs normoxic cells ([2]; hypoxic (1% O2) vs normoxic (20% O2), 100 μM): Increased uptake | fluorescence staining under competition with excess lactic acid ([2]; normoxic cells, 5 mM lactic acid): markedly reduced | mean diffusion coefficients of fluorescent particles, hypoxic vs normoxic cells [3]: higher mean diffusion coefficients | cytotoxicity (cell viability) [4]: no significant cytotoxicity
